Assay results: patent US10716797B2, “Steroid alkaloids and compositions and kits thereof” (priority 2013, dated 2020)
Entries after “also recorded” stand apart in the source; their conditions may differ.

Columns and labels:
[1] = tested on: Staphylococcus aureus ATCC 29213; experiment: MIC by microdilution, compound alone or in combination with an aminoglycoside; format: cell-based
Description: Method. The minimal inhibitory concentrations (MICs), (i.e. lowest concentration of an antimicrobial that will inhibit the visible growth of a microorganism after incubation), of test compounds were determined against the normal or SCV strains of bacterial species from the Firmicutes phylum. Briefly, MICs were determined using the microdilution method in 96-well plates (Clinical and Laboratory Standards Institute (CLSI), 2011). Bacteria were inoculated at ˜10^5-10^6 CFU/mL and incubated at 35° C. for 20 h (normal strains) or 48 h (SCVs) in brain heart infusion (BHI) broth in order to allow SCVs to reach maximal growth as previously described (Mitchell et al., 2012). Then OD595 nm was read on a microplate reader. […] In this example the range of compound concentrations tested was 0.03 to 64 μg/ml using doubling increments. Strain Staphylococcus aureus NewbouldΔhemB (hemB) was also used in the experiments and is a laboratory-derived stable SCV created by the insertion of the macrolide resistance gene ermA in the hemB gene of this strain to create the SCV phenotype (defective electron transport chain and respiratory deficiency) through inactivation of hemin biosynthesis (Brouillette et al., 2004).
The various antibacterial activities of the test compounds against Staphylococcus aureus ATCC 29213, alone or in combination with gentamicin, and alone against the SCV strain hemB are reported in Table 1.

[2] = tested on: S. aureus SCV strain CF07-S in polarized Calu-3 epithelial cells; experiment: Intracellular replication of SCV in Calu-3 cell infection assay; format: cell-based, Staphylococcus aureus; conditions: 2 and 4 μg/ml; 48 h post-internalization; vs DMSO-treated cells; hydrochloride
Description: Human airway epithelial cells, the Calu-3 cell line ATCC HTB 55, were used in this cell culture assay. Cells were cultured in Eagle's Minimum Essential Medium (EMEM) supplemented with 0.1 mM MEM nonessential amino acids, 1 mM of sodium pyruvate, 100 U/ml penicillin, 0.1 mg/ml streptomycin, 2.5 μg/ml of Fungizone and 10% fetal bovine serum (FBS) at 37° C. in 5% CO2. For routine culture, 4 μg/ml of puromycin was added to culture media. All cell culture reagents were purchased from Wisent (St-Bruno, QC, Canada). Cell infection assays were performed as previously described (Mitchell et al., 2011). Cells were seeded at 2.5×10^5 cells/inserts on 12-well Transwell™ plates and cultured for 9 to 10 days in an air:liquid system. The complete medium in the basal compartment was replaced by the invasion medium (1% FBS and no antibiotics) 18 h before assays. Inocula were prepared by suspending bacteria grown 20 h on BHIA plates in ice-cold PBS. Bacteria (the S. aureus SCV strain CF07-S; Mitchell et al., 2011) were then washed three times in ice-cold PBS and suspended in the invasion medium supplemented with 0.5% BSA at a density of approximately 4×10^8 CFU/ml. […] Fresh invasion medium supplemented with lysostaphin was also added 1 h before cell lysis to ensure that only intracellular bacteria were counted. […]

3-(N-aminoethyl)-aminotomatidine hydrochloride [Compound 14]
potentiaton fold with gentamicin ([1]; MIC gentamicin alone / MIC gentamicin with compound at 4 μg/mL): 4-8 x | potentiation / synergy with aminoglycoside (gentamicin) in words ([1]; S. aureus ATCC 29213): retain the ability to potentiate | activity vs ATCC29213 in words ([1]; compound tested alone): Active | MIC vs ATCC29213 ([1]; compound tested alone, hydrochloride): 8 to 16 µg/mL | potentiation activity with gentamicin in words ([1]; compound used at 4 μg/mL): Moderate-high | Combination MIC vs ATCC29213 (MIC of gentamicin in combination with the compound) ([1]; compound used at 4 μg/mL, MIC of gentamicin alone 0.5 μg/mL): 0.06-0.12 | intracellular SCVs in Calu-3 cells (CFU) [2]: can significantly decrease the infection; also recorded: significantly less SCVs
